Results taken from patent publication US9597310B2, “Indanyloxydihydrobenzofuranylacetic acids” (Boehringer Ingelheim International GmbH, priority 2012, dated 2017).

What follows are compounds tested against human GPR40 receptor (Homo sapiens (Human), UniProt O14842) (assay: IP1 accumulation measurements using the IPOne assay system). Details: 1321N1 cells stably expressing human GPR40 receptor, 1 h stimulation.
Chain of human GPR40 receptor (O14842 whole entry): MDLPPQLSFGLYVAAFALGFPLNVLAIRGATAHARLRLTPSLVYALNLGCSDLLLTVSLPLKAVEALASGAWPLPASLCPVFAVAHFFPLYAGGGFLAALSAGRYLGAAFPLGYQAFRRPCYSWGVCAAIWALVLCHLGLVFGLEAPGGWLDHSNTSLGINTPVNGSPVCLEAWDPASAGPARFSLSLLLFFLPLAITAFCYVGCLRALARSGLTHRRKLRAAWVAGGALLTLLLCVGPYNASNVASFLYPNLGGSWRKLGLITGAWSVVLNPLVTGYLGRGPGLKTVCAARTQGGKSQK
Assay type: cell-based
Description: IP1 accumulation measurements using the IPOne assay system—1321N1 cells stably expressing human GPR40 receptor (Euroscreen, Belgium) are seeded 24 h before the assay in white 384-well plates in culture medium containing 10% FCS, 1% Na-Pyruvate and 400 μg/mL G418. IP1 is assayed according to the manufacturer's description (Cisbio Bioassays, France). In brief, the assay is started by substitution of the culture medium by stimulation buffer (Hepes 10 mM, CaCl2 1 mM, MgCl2 0.5 mM, KCl 4.2 mM, NaCl 146 mM, glucose 5.5 mM and LiCl 50 mM, pH 7.4). Cells are stimulated for 1 h at 37° C., 5% CO2 by addition of the compounds that are diluted in stimulation buffer containing LiCl. Assays are stopped by adding HTRF-conjugates (IP1-d2 and Anti-IP1 cryptate Tb) and lysis buffer, provided by the manufacturer. After an incubation time of 1 h at room temperature plates are measured using an EnVision™, Perkin Elmer. The obtained fluorescence ratios at 665/615 […] are then used to calculate the pEC50 values using Assay Explorer 3.3 Software (Accelrys, Inc.) by interpolation using an IP1 reference curve and subsequent sigmoidal curve fitting allowing for a variable hill slope.
Compound `CS(=O)(=O)CCCOc1ccc(Oc2ccc(F)c3c2CC[C@H]3Oc2ccc3c(c2)OC[C@H]3CC(=O)O)cc1` [Example 4, [(S)-6-{(R)-7-Fluoro-4-[4-(3-methanesulfonyl-propoxy)-phenoxy]-indan-1-yloxy}-2,3-dihydro-benzofuran-3-yl)-acetic acid] has an EC50 of 15 nM. `O=C(O)C[C@@H]1COc2cc(O[C@@H]3CCc4c(Oc5ccc(CN6CCOCC6)cc5)ccc(F)c43)ccc21` [Example 5, {(S)-6-[(R)-7-Fluoro-4-(4-morpholin-4-ylmethyl-phenoxy)-indan-1-yloxy]-2,3-dihydro-benzofuran-3-yl}-acetic acid] was tested, and the EC50 was 25 nM. For `CC(=O)NCc1cccc(Oc2ccc(F)c3c2CC[C@H]3Oc2ccc3c(c2)OC[C@H]3CC(=O)O)c1` [Example 7, [(S)-6-{(R)-4-[3-(Acetylamino-methyl)-phenoxy]-7-fluoro-indan-1-yloxy}-2,3-dihydro-benzofuran-3-yl]-acetic acid], the EC50 was 55 nM. `CC(=O)Nc1ccc(Oc2ccc(F)c3c2CC[C@H]3Oc2ccc3c(c2)OC[C@H]3CC(=O)O)cc1` [Example 8, {(S)-6-[(R)-4-(4-Acetylamino-phenoxy)-7-fluoro-indan-1-yloxy]-2,3-dihydro-benzofuran-3-yl}-acetic acid] showed an EC50 of 34 nM. Compound `O=C(O)C[C@@H]1COc2cc(O[C@@H]3CCc4c(Oc5ccc(-n6ccnc6)cc5)ccc(F)c43)ccc21` [Example 10, {(S)-6-[(R)-7-Fluoro-4-(4-imidazol-1-yl-phenoxy)-indan-1-yloxy]-2,3-dihydro-benzofuran-3-yl}-acetic acid] has an EC50 of 11 nM. For `O=C(O)C[C@@H]1COc2cc(O[C@@H]3CCc4c(Oc5ccc(-c6nnn[nH]6)cc5)ccc(F)c43)ccc21` [Example 13, [(S)-6-{(R)-7-Fluoro-4-[4-(1H-tetrazol-5-yl)-phenoxy]-indan-1-yloxy}-2,3-dihydro-benzofuran-3-yl]-acetic acid], the EC50 was 282 nM. For `Cn1nnnc1-c1ccc(Oc2ccc(F)c3c2CC[C@H]3Oc2ccc3c(c2)OC[C@H]3CC(=O)O)cc1` [Example 14, [(S)-6-{(R)-7-Fluoro-4-[4-(1-methyl-1H-tetrazol-5-yl)-phenoxy]-indan-1-yloxy}-2,3-dihydro-benzofuran-3-yl]-acetic acid], the EC50 was 23 nM. For `Cn1nnc(-c2ccc(Oc3ccc(F)c4c3CC[C@H]4Oc3ccc4c(c3)OC[C@H]4CC(=O)O)cc2)n1` [Example 15, [(S)-6-{(R)-7-Fluoro-4-[4-(2-methyl-2H-tetrazol-5-yl)-phenoxy]-indan-1-yloxy}-2,3-dihydro-benzofuran-3-yl]-acetic acid], the EC50 was 3 nM. `O=C(O)C[C@@H]1COc2cc(O[C@@H]3CCc4c(Oc5ccnc(O[C@H]6CCOC6)c5)ccc(F)c43)ccc21` [Example 16, {(S)-6-[(R)-7-fluoro-4-{2-[(S)-tetrahydro-furan-3-yloxy]-pyridin-4-yloxy}-indan-1-yloxy]-2,3-dihydro-benzofuran-3-yl}-acetic acid] was tested, and the EC50 was 9 nM. `CC(C)(O)CCOc1ccc(Oc2ccc(F)c3c2CC[C@H]3Oc2ccc3c(c2)OC[C@H]3CC(=O)O)nc1` [Example 17, [(S)-6-{(R)-7-Fluoro-4-[5-(3-hydroxy-3-methyl-butoxy)-pyridin-2-yloxy]-indan-1-yloxy}-2,3-dihydro-benzofuran-3-yl]-acetic acid] gave an EC50 of 23 nM. With `O=C(O)C[C@@H]1COc2cc(O[C@@H]3CCc4c(Oc5ccc(O[C@H]6CCOC6)cn5)ccc(F)c43)ccc21` [Example 18, {(S)-6-[(R)-7-Fluoro-4-{5-[(S)-tetrahydro-furan-3-yloxy}-pyridin-2-yloxy}-indan-1-yloxy]-2,3-dihydro-benzofuran-3-yl}-acetic acid] the EC50 was 31 nM. `CS(=O)(=O)CCCOc1c(F)cc(Oc2ccc(F)c3c2CC[C@H]3Oc2ccc3c(c2)OC[C@H]3CC(=O)O)cc1F` [Example 19, [(S)-6-{(R)-4-[3,5-Difluoro-4-(3-methanesulfonyl-propoxy)-phenoxy]-7-fluoro-indan-1-yloxy}-2,3-dihydro-benzofuran-3-yl]-acetic acid] showed an EC50 of 12 nM.
